Experimental data taken from patent publication US6274715A, “Tricyclic erythromycin derivatives” (priority 1997, dated 2001).
Converted amounts (≈) assume the structure as drawn.

Columns and labels:
Type in all cases: cell-based
[1] = test system: PROVIDENCIA STUARTII CMX 640; conditions: P. stuartii CMX 640; BHI agar; unit assumed
[2] = test system: KLEBSIELLA PNEUMONIAE ATCC 8045; assay: In vitro antibacterial activity, MIC, BHI agar dilution; conditions: K. pneumoniae ATCC 8045, unit assumed
[3] = test system: STAPHYLOCOCCUS AUREUS 1775; assay: as above; conditions: S. aureus 1775, unit assumed
[4] = test system: M[…] ATCC 4698; assay: as above; conditions: M. luteus ATCC 4698, unit assumed
Procedure, shortened: (§1)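 MIC was read visually as the lowest drug concentration showing no growth, a slight haze or sparsely isolated colonies relative to a compound-free BHI plate. Plates held serial aqueous dilutions in BHI agar, were spot-inoculated with 1:100 (or 1:10) culture dilutions and incubated 20 to 24 hours at 35-37° C.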

[5] = test system: EN[…] ATCC 8043; assay: as above; conditions: E. faecium ATCC 8043, unit assumed
Procedure, shortened: as §1

[6] = test system: STR[…] 508; assay: as above; conditions: S. agalactiae CMX 508, unit assumed
Procedure, shortened: as §1

[7] = test system: M[…] ATCC 9341; assay: as above; conditions: M. luteus ATCC 9341, unit assumed
Procedure, shortened: as §1

[8] = test system: STAPHYLOCOCCUS AUREUS NCTC10649M; assay: as above; conditions: S. aureus NCTC10649M, unit assumed
[9] = test system: PSEUDOMONAS AERUGINOSA 5007; assay: as above; conditions: P. aeruginosa 5007, unit assumed
[10] = test system: PSEUDOMONAS AERUGINOSA K799/WT; assay: as above; conditions: P. aeruginosa K799/WT, unit assumed
[11] = test system: PSEUDOMONAS AERUGINOSA DPHD-5263; assay: as above; conditions: P. aeruginosa DPHD-5263, unit assumed
[12] = test system: CANDIDA ALBICANS CCH 442; assay: as above; conditions: C. albicans CCH 442, unit assumed
[13] = test system: ESCHERICHIA COLI JUHL; conditions: E. coli JUHL; BHI agar; unit assumed
[14] = test system: MYCOBACTERIUM SMEGMATIS ATCC 114; assay: In vitro antibacterial activity, MIC, BHI agar dilution; conditions: M. smegmatis ATCC 114, unit assumed
[15] = test system: PSEUDOMONAS AERUGINOSA BMH10; assay: as above; conditions: P. aeruginosa BMH10, unit assumed
[16] = test system: H. Influenza Dill AMP R; assay: In vitro antibacterial activity against H. Influenza Dill AMP R, MIC; conditions: separate assay, unit assumed
Description: Representative compounds of the present invention were assayed in vitro for antibacterial activity as follows: Twelve petri dishes containing successive aqueous dilutions of the test compound mixed with 10 mL of sterilized Brain Heart Infusion (BHI) agar (Difco 0418-01-5) were prepared. Each plate was inoculated with 1:100 (or 1:10 for slow-growing strains, such as Micrococcus and Streptococcus) dilutions of up to 32 different microorganisms, using a Steers replicator block. The inoculated plates were incubated at 35-37° C. for 20 to 24 hours. In addition, a control plate, using BHI agar containing no test compound, was prepared and incubated at the beginning and end of each test.
After incubation, each plate was visually inspected. The minimum inhibitory concentration (MIC) was defmed as the lowest concentration of drug yielding no growth, a slight haze, or sparsely isolated colonies on the inoculum spot as compared to the growth control.
In a separate assay representative compounds of the invention were assayed in vitro for antibacterial activity against the H. Influenza Dill AMP R strain, according to the protocol described above.

[17] = test system: ESCHERICHIA COLI H560; assay: In vitro antibacterial activity, MIC, BHI agar dilution; conditions: E. coli H560, unit assumed
[18] = test system: PSEUDOMONAS AERUGINOSA DPHD-2862; assay: as above; conditions: P. aeruginosa DPHD-2862, unit assumed
[19] = test system: STAPHYLOCOCCUS AUREUS CMX 642A; assay: as above; conditions: S. aureus CMX 642A, unit assumed
[20] = test system: ESCHERICHIA COLI DC-2; assay: as above; conditions: E. coli DC-2, unit assumed
[21] = test system: STAPHYLOCOCCUS AUREUS ATCC 6538P; assay: as above; conditions: S. aureus ATCC 6538P, 35-37° C., 20 to 24 hours, unit assumed
[22] = test system: PSEUDOMONAS AERUGINOSA K799/61; assay: as above; conditions: P. aeruginosa K799/61, unit assumed
[23] = test system: PSEUDOMONAS CEPACIA 296I; assay: as above; conditions: P. cepacia 296I, unit assumed
[24] = test system: STREPTOCOCCUS BOVIS A-5169; assay: as above; conditions: S. bovis A-5169, unit assumed
[25] = test system: STREPTOCOCCUS PYOGENES 930; assay: as above; conditions: S. pyogenes 930, unit assumed
[26] = test system: STAPHYLOCOCCUS AUREUS A-5278; assay: as above; conditions: S. aureus A-5278, unit assumed
[27] = test system: ENTEROBACTER AEROGENES ATCC 13048; assay: as above; conditions: E. aerogenes ATCC 13048, unit assumed
[28] = test system: STAPHYLOCOCCUS AUREUS CMX 553; assay: as above; conditions: S. aureus CMX 553, unit assumed
[29] = test system: STREPTOCOCCUS PYOGENES PIU 2548; assay: as above; conditions: S. pyogenes PIU 2548, unit assumed
[30] = test system: ESCHERICHIA COLI KNK 437; conditions: E. coli KNK 437; BHI agar; unit assumed
[31] = test system: STAPHYLOCOCCUS EPIDERMIDIS 3519; conditions: S. epidermidis 3519; BHI agar; unit assumed
[32] = test system: STREPTOCOCCUS PYOGENES EES61; assay: In vitro antibacterial activity, MIC, BHI agar dilution; conditions: S. pyogenes EES61, unit assumed
[33] = test system: ESCHERICHIA COLI SS; assay: as above; conditions: E. coli SS, unit assumed
[34] = test system: STAPHYLOCOCCUS AUREUS A5177; assay: as above; conditions: S. aureus A5177, unit assumed

| Structure (SMILES) | MIC [1] [µg/mL] | MIC [3] [µg/mL] | MIC [4] [µg/mL] | MIC [5] [µg/mL] | MIC [6] [µg/mL] | MIC [7] [µg/mL] | MIC [8] [µg/mL] | MIC [9] [µg/mL] | MIC [10] [µg/mL] | MIC [11] [µg/mL] | MIC [12] [µg/mL] | MIC [13] [µg/mL] | MIC [14] [µg/mL] | MIC [15] [µg/mL] | MIC [16] [µg/mL] | MIC [17] [µg/mL] | MIC [18] [µg/mL] | MIC [19] [µg/mL] | MIC [20] [µg/mL] | MIC [21] [µg/mL] | other results |
| --- | --- | --- | --- | --- | --- | --- | --- | --- | --- | --- | --- | --- | --- | --- | --- | --- | --- | --- | --- | --- | --- |
| CCC1OC(=O)C(C)C(=O)C(C)C(OC2OC(C)CC(N(C)C)C2O)C(C)(OC)CC(C)C2=NC(c3ccccc3)C(c3ccccc3)N3C(=O)OC1(C)C3C2C (centres unmarked) [Example 7] | > 100 | 100 (≈ 127 µM) | 1.56 (≈ 1.97 µM) | 0.39 (≈ 0.494 µM) | 0.2 (≈ 0.253 µM) | 0.39 (≈ 0.494 µM) | 3.1 (≈ 3.92 µM) | > 100 | > 100 | > 100 | > 100 | > 100 | 1.56 (≈ 1.97 µM) | > 100 | 64 (≈ 81 µM) | > 100 | > 100 | 3.1 (≈ 3.92 µM) | > 100 | 3.1 (≈ 3.92 µM) | MIC [2]: > 100 µg/mL; MIC [22]: 6.2 µg/mL (≈ 7.85 µM); MIC [23]: > 100 µg/mL; MIC [24]: 0.2 µg/mL (≈ 0.253 µM); MIC [25]: 50 µg/mL (≈ 63.3 µM); MIC [26]: 100 µg/mL (≈ 127 µM); MIC [27]: > 100 µg/mL; MIC [28]: 3.1 µg/mL (≈ 3.92 µM); MIC [29]: 1.56 µg/mL (≈ 1.97 µM); MIC [30]: > 100 µg/mL; MIC [31]: 1.56 µg/mL (≈ 1.97 µM); MIC [32]: 0.2 µg/mL (≈ 0.253 µM); MIC [33]: 3.1 µg/mL (≈ 3.92 µM) |
| CC[C@H]1OC(=O)[C@H](C)C(=O)[C@H](C)[C@@H](O[C@@H]2O[C@H](C)C[C@H](N(C)C)[C@H]2O)[C@](C)(OC)C[C@@H](C)C2=NCC(CNCc3ccccc3)N3C(=O)O[C@@]1(C)[C@H]3[C@H]2C (some centres unmarked) [Example 131] | > 100 | > 100 | 0.2 (≈ 0.264 µM) | 0.1 (≈ 0.132 µM) | 0.05 (≈ 0.0661 µM) | 0.02 (≈ 0.0264 µM) | 0.39 (≈ 0.515 µM) | > 100 | 50 (≈ 66.1 µM) | > 100 | > 100 | 50 (≈ 66.1 µM) | 1.56 (≈ 2.06 µM) | > 100 | 4 (≈ 5.28 µM) | 12.5 (≈ 16.5 µM) | > 100 | 0.39 (≈ 0.515 µM) | 25 (≈ 33 µM) | 0.39 (≈ 0.515 µM) | MIC [34]: 0.39 µg/mL (≈ 0.515 µM); MIC [22]: 0.78 µg/mL (≈ 1.03 µM); MIC [23]: 25 µg/mL (≈ 33 µM); MIC [25]: > 100 µg/mL; MIC [26]: > 100 µg/mL; MIC [27]: 50 µg/mL (≈ 66.1 µM); MIC [28]: 0.39 µg/mL (≈ 0.515 µM); MIC [29]: 0.78 µg/mL (≈ 1.03 µM); MIC [30]: 25 µg/mL (≈ 33 µM); MIC [31]: 0.39 µg/mL (≈ 0.515 µM); MIC [32]: 0.02 µg/mL (≈ 0.0264 µM); MIC [33]: 0.2 µg/mL (≈ 0.264 µM) |
